From the NIST ThermoML archive (doi:10.1021/je300111m)
Values joined by “and” are separate entries in the source; they are usually repeats but may differ in a detail not shown here. Equal values may be shown once. Numbers after ± are expanded uncertainties.

Details: Liquid

| SMILES | vapor or sublimation pressure (243.23 K) | vapor or sublimation pressure (273.12 K) [kPa] | vapor or sublimation pressure (222.83 K) [kPa] | vapor or sublimation pressure (243.02 K) [kPa] | vapor or sublimation pressure (243.18 K) [kPa] | vapor or sublimation pressure (243.2 K) [kPa] | vapor or sublimation pressure (273.13 K) [kPa] | vapor or sublimation pressure (293.43 K) [kPa] | vapor or sublimation pressure (243.03 K) [kPa] | vapor or sublimation pressure (293.38 K) [kPa] |
| --- | --- | --- | --- | --- | --- | --- | --- | --- | --- | --- |
| CCC [propane] | 168 ± 2.8 kPa and 168.2 ± 2.8 kPa | 473.5 ± 7.7 | – | – | – | – | – | – | – | – |
| S [hydrogen sulfide] | – | 1030.2 ± 17 | 167.3 ± 2.8 | 384 ± 6.2 | 380.2 ± 6.2 | 379.4 ± 6.2 | 1029.3 ± 17 | 1793.7 ± 29 | – | – |
| CCCC [butane] | – | – | – | – | – | – | – | – | 29.1 ± 0.5 | 210.8 ± 3.5 |
